Source: publication PMC6359037, “Effects of Piperazine Derivative on Paclitaxel Pharmacokinetics” (Pharmaceutics, 2019)
Like-named read-outs stand apart in the source and are kept apart here.

What was measured:
MCF-7/ADR cells [1] = assay: Cytotoxicity (toxic effect) of each piperazine derivative alone, SRB assay; assay type: cell-based, human; conditions: 2 h incubation
Method: The MDR human breast cancer cell line MCF-7/ADR was maintained in RPMI 1640, supplemented with 2 mM L-glutamine, 10 mM HEPES, 24 mM NaHCO3, 10% fetal bovine serum, and 1% antibiotic-antimycotic agent at 37 °C in a humidified 5% CO2 atmosphere.
(§1) The cytotoxicity of each piperazine derivative was examined in the cells using the sulforhodamine B (SRB) assay. The changes in IC50 values of DNM, P-gp substrate anticancer drug were estimated in the presence of piperazine derivatives at a concentration of 100 μM. The details of the cytotoxicity assay were described in our previous report. […] The IC50 values were calculated with the Table Curve Windows program. The assay was performed in triplicate.

human P-gp membrane = human P-gp membrane (Homo sapiens, UniProt P08183); assay: P-glycoprotein ATPase activity assay; conditions: 100 μM
Chain of human P-gp membrane (P08183 whole entry): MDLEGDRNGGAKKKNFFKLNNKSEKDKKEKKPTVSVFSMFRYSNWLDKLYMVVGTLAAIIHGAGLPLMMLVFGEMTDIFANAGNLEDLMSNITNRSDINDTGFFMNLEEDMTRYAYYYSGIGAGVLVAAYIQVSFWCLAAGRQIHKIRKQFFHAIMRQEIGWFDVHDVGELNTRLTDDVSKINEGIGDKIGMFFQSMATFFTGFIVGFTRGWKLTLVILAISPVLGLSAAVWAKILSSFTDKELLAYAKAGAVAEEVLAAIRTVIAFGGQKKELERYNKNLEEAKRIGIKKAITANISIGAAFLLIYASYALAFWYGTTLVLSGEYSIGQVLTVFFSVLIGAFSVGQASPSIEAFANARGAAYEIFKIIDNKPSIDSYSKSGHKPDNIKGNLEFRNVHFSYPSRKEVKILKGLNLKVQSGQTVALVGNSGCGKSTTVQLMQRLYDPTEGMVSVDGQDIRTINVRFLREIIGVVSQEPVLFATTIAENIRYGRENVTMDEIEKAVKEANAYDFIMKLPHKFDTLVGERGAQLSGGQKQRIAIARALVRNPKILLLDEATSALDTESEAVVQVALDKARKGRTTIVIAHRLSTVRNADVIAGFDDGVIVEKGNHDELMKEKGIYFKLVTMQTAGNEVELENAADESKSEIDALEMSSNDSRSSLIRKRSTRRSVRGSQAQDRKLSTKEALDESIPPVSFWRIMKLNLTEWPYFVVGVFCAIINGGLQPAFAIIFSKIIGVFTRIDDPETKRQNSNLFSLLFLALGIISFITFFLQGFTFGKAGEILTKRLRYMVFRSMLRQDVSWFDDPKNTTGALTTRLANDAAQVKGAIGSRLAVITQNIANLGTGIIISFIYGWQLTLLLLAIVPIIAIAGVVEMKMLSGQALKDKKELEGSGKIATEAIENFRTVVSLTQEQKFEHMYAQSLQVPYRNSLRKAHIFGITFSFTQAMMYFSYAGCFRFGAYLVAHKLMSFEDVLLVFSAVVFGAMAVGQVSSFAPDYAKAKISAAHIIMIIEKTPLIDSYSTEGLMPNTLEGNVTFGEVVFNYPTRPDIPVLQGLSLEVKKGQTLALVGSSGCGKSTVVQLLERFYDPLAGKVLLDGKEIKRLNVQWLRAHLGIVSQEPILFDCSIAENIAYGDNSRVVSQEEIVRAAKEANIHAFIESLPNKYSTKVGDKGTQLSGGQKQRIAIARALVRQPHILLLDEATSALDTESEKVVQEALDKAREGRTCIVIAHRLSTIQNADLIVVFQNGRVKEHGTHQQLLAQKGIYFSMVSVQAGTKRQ
From the text: The rate of phosphate release per mg membrane protein represented the ATPase activity by converting to the relative ratio versus control value.

MCF-7/ADR cells [2] = assay: Cytotoxicity assay (SRB): change of DNM IC50 in the presence of piperazine derivatives; assay type: cell-based; conditions: Homo sapiens, NCI/ADR-RES, DNM alone (negative control)
Method: as §1, with “The changes in IC50 values of DNM, P-gp substrate anticancer drug were estimated in the presence of piperazine derivatives at a concentration of 100 μM.” left out

P-gp = biological target: T1, P-gp (Homo sapiens, UniProt P08183); assay: [3H]-DNM efflux study in P-gp overexpressing cells; assay type: cell-based; conditions: control: tritium-labeled DNM alone, 1 h, MCF-7/ADR cells
T1 construct: uptake (A) and efflux (B) of [^3H]-DNM in MCF-7/ADR cells; endogenous in cells; host or cells: MCF-7/ADR
T1 sequence (P08183 whole entry): as above
Method: Tritium-labeled P-gp substrate uptake and efflux studies were performed using the modified Harker and Sikic method. […] For the efflux study, cells were incubated with 0.05 μM tritium-labeled DNM for 1 h and subsequently in the absence or presence of 100 μM of pre-selected derivatives for another 1 h after removing 0.05 μM of the tritium-labeled DNM. The uptake and efflux values based on the radioactivity estimated by Liquid Scintillation Counting were normalized to those of 1 × 10^6 cells. The detailed procedures have been reported previously.

[3] = set-up: method as in doi:10.1016/S0378-5173(98)00188-4; conditions: cited from earlier work
[4] = PTX pharmacokinetics in rats, alone or orally co-administered with compound 4; assay type: in vivo, Sprague-Dawley rats; conditions: for AUC(0-inf): read-out: AUCinf of PTX; for k el: read-out: ke of PTX (converted); for half-life: read-out: t1/2 of PTX (converted)
Method: All the animal experiments were performed using six-week-old male Sprague-Dawley rats (200–235 g) under the procedures granted by the Ewha Womans University Institutional Animal Care and Use Committee (IACUC) (No. 2012-01-019), Korea.
PTX at 2 mg/mL was prepared immediately prior to use with a commercial formulation of Taxol® (Cremophor® EL, anhydrous ethanol and isotonic saline (1:1:4, v/v/v)). Compound 4 (N-(4-(4-bromophenyl)thiazol-2-yl)-2-(N-(2-(4-((4-chlorophenyl)(phenyl)methyl)piperazin-1-yl)-2-oxoethyl)acetamido)acetamide) was prepared using a process similar to PTX formulation for oral administration.
For intravenous injection of 2 mg/kg of PTX (IV) and oral administration of 25 mg/kg of PTX (PO) with 0, 2, or 5 mg/kg of compound 4, the rats were divided into 4 groups on the day. The common carotid artery was catheterized for blood sampling. Blood sampling was conducted at 0, 0.033, 0.083, 0.25, 0.5, 1, 2, 3, 4, 6, 10, and 24 h for the IV group and 0, 0.25, 0.5, 1, 2, 3, 4, 6, 8, 10, and 24 h for PO groups.
Prepared plasma samples mixed with internal standard (4-hydroxybenzoic acid n-hexyl ester) were analyzed by the HPLC system.
WinNonlin® Professional version 5.2 software (Pharsight Corporation, Mountain View, CA, USA) was used to estimate the PK parameters following intravenous or oral PTX administrations to the rats. Non-compartmental analysis was performed using the plasma PTX concentration–time profiles to obtain the following PK parameters: Area under the plasma concentration–time curve from zero time to infinity (AUCinf), elimination half-life (t1/2), apparent volume of distribution after oral administration (Vz/F), and oral clearance (Cl/F). The maximum plasma concentration (Cmax) and the time required to reach Cmax (Tmax) were directly measured from the plasma PTX concentration–time curve. The absolute BA and relative BA (AB and RB, respectively) of PTX were calculated using the respective formulas below:AB (%) = AUC po/AUC iv × IV dose/PO dose × 100 RB (%) = AUC po co–administration/AUC po control × 100

P-glycoprotein (P-gp) = tested on: P-glycoprotein (P-gp); set-up: method as in PMID 12608532; conditions: cited from earlier work
MES-SA/Dx5 = tested on: MES-SA/Dx5; set-up: method as in PMID 19275716; conditions: xenograft mice with MES-SA/Dx5 (P-gp overexpressed) vs parental cells; cited from earlier work
[5] = PTX 25 mg/kg PO alone (oral control)
[6] = male, Sprague-Dawley, rat, plasma, PTX 2 mg/kg IV (IV control)
[7] = male, Sprague-Dawley, rat, plasma, PTX 25 mg/kg PO alone (oral control)

| SMILES | cell survival ratio (MCF-7/ADR cells [1]; 5 μM) | cell survival ratio (MCF-7/ADR cells [1]; 10 μM) | cell survival ratio (MCF-7/ADR cells [1]; 25 μM) | cell survival ratio (MCF-7/ADR cells [1]; 50 μM) | cell survival ratio (MCF-7/ADR cells [1]; 100 μM) | other results |
| --- | --- | --- | --- | --- | --- | --- |
| O=C(CN(CC(=O)N1CCN(C(c2ccccc2)c2ccc(Cl)cc2)CC1)C(=O)c1ccc2ccccc2c1)NCc1ccccc1 (stereo not shown) [Compound 1] | 89.77 | 90.47 | 89.23 | 88.56 | 87.21 |  |
| O=C(CN(CC(=O)N1CCN(C(c2ccccc2)c2ccc(Cl)cc2)CC1)C(=O)Cc1ccccc1)Nc1nc(-c2ccc(Cl)cc2)cs1 (stereo not shown) [Compound 2] | 102.70 | 102.87 | 86.94 | 86.10 | 87.75 | P-gp ATPase activity compared to the control (human P-gp membrane): 1.3 fold; P-gp ATPase activity, ratio of the control (blank) (human P-gp membrane): 1.29 |
| O=C(CN(CC(=O)N1CCN(C(c2ccccc2)c2ccc(Cl)cc2)CC1)C(=O)c1ccc2ccccc2c1)Nc1nc(-c2ccc(Cl)cc2)cs1 (stereo not shown) [Compound 3] | 102.03 | 101.69 | 102.24 | 86.26 | 85.90 |  |
| CC(=O)N(CC(=O)Nc1nc(-c2ccc(Br)cc2)cs1)CC(=O)N1CCN(C(c2ccccc2)c2ccc(Cl)cc2)CC1 (stereo not shown) [Compound 4, N-(4-(4-bromophenyl)thiazol-2-yl)-2-(N-(2-(4-((4-chlorophenyl)(phenyl)methyl)piperazin-1-yl)-2-oxoethyl)acetamido)acetamide] | 100.76 | 98.50 | 96.14 | 96.90 | 87.63 | P-gp ATPase activity compared to the control (human P-gp membrane): 1.2 fold; P-gp ATPase activity, ratio of the control (blank) (human P-gp membrane): 1.18 |
| COc1ccc(CNC(=O)CN(CC(=O)N2CCN(C(c3ccccc3)c3ccc(Cl)cc3)CC2)C(=O)c2ccccc2)cc1 (stereo not shown) [Compound 5] | 101.71 | 87.22 | 83.46 | 83.84 | 81.94 |  |
| CC(C)(C)c1cc(NC(=O)CN(CC(=O)N2CCN(C(c3ccccc3)c3ccc(Cl)cc3)CC2)C(=O)c2ccccc2)no1 (stereo not shown) [Compound 6] | 100.72 | 101.38 | 100.76 | 85.68 | 82.91 |  |
| COc1cccc2c1C(=O)c1c(O)c3c(c(O)c1C2=O)C[C@@](O)(C(C)=O)C[C@@H]3O[C@H]1C[C@H](N)[C@H](O)[C@H](C)O1 [DNM, Daunomycin] |  |  |  |  |  | IC50 (MCF-7/ADR cells [2]): 31.7 µM; [3H]-DNM efflux (P-gp): 63.0 ± 3.3% |
| CC(=O)O[C@H]1C(=O)[C@@]2(C)[C@H]([C@H](OC(=O)c3ccccc3)[C@]3(O)C[C@H](OC(=O)[C@H](O)[C@@H](NC(=O)c4ccccc4)c4ccccc4)C(C)=C1C3(C)C)[C@]1(OC(C)=O)CO[C@@H]1C[C@@H]2O [PTX, Paclitaxel] |  |  |  |  |  | bioavailability of PTX [3]: below 10%; AB (absolute BA) of PTX ([4]; PTX 2 mg/kg IV (IV control)): 100.0%; Cl/F of PTX ([4]; PTX 2 mg/kg IV (IV control)): 614 ± 123 mL/h; Vz/F of PTX ([4]; PTX 2 mg/kg IV (IV control)): 1754 ± 419 mL; AB (absolute BA) of PTX [4, 5]: 7.1%; Cl/F of PTX [4, 5]: 8721 ± 2040 mL/h; Cmax [4, 6]: 2970 ± 428 ng/mL; AUC(0-inf) [4, 6]: 835 ± 155 ng·h/mL; k el [4, 6]: 0.000103 s⁻¹; half-life [4, 6]: 2.06 ± 0.8 h; Cmax [4, 7]: 189 ± 76 ng/mL; Tmax [4, 7]: 2 h; AUC(0-inf) [4, 7]: 745 ± 208 ng·h/mL; Vd/F ([4]; male, Sprague-Dawley, rat, plasma, PTX 25 mg/kg PO alone (oral control), read-out: Vz/F of PTX): 40.6 L; k el [4, 7]: 6.47e-05 s⁻¹; half-life [4, 7]: 3.1 ± 0.8 h; share of orally administered PTX excluded from the GI track by P-gp (P-glycoprotein (P-gp)): approximately 50% |
| O=C(C(c1ccccc1)c1ccc([125I])cc1)N1CCN(CC(O)COc2cccc3ncccc23)CC1 (stereo not shown) [radio-iodinated piperazine derivative, 5-[3-{4-(2-phenyl-2-(4-[125I]iodo-phenyl)acetyl)piperazin-1-yl}-2-hydroxypropoxy] quinoline] |  |  |  |  |  | shortening of absorption half-life (MES-SA/Dx5): ~10 fold; shortening of mean residence time (MES-SA/Dx5): 50% |
